From the CheMixHub ionic liquid set

Assay: xn = mol fraction of the nth substance listed

CCCC[n+]1ccn(C)c1.O=S(=O)([O-])C(F)(F)F + CN(C)c1ccccc1
Conditions | viscosity [mPa·s]
308.15 K, 100 kPa, x2 = 0 | 52.2

CCCCCCCCn1cc[n+](C)c1.O=[N+]([O-])[O-] + CCCO
101 kPa
Conditions | viscosity [mPa·s]
288.15 K, x2 = 0.258 | 356
288.15 K, x2 = 0.556 | 52
293.15 K, x2 = 0.47 | 75.4
293.15 K, x2 = 0.556 | 42.1
293.15 K, x2 = 0.671 | 19.89
298.15 K, x2 = 0.866 | 5.08
303.15 K, x2 = 0.258 | 147
303.15 K, x2 = 0.364 | 78.7
308.15 K, x2 = 0.556 | 24.01
313.15 K, x2 = 0.47 | 32.9
313.15 K, x2 = 0.671 | 10.83
318.15 K, x2 = 0.258 | 65.9
318.15 K, x2 = 0.671 | 9.5
328.15 K, x2 = 0.556 | 11.56

[Cl][Al]([Cl])[Cl] + CCCC[n+]1ccn(C)c1.[Cl-]
Conditions | electrical conductivity [S/m] | viscosity [mPa·s]
270.1 K, 101.3 kPa, x2 = 0.5263 | 0.158 | –
270.1 K, 101.3 kPa, x2 = 0.5556 | 0.0827 | –
275.6 K, 101.3 kPa, x2 = 0.3333 | 0.36 | –
275.6 K, 101.3 kPa, x2 = 0.3636 | 0.38 | –
275.6 K, 101.3 kPa, x2 = 0.4 | 0.412 | –
275.6 K, 101.3 kPa, x2 = 0.4348 | 0.408 | –
276.1 K, 101.3 kPa, x2 = 0.4762 | 0.415 | –
276.1 K, 101.3 kPa, x2 = 0.5 | 0.423 | –
276.1 K, 101.3 kPa, x2 = 0.5556 | 0.135 | –
281.1 K, 101.3 kPa, x2 = 0.5263 | 0.328 | –
281.1 K, 101.3 kPa, x2 = 0.5556 | 0.189 | –
284.65 K, 101.3 kPa, x2 = 0.3333 | 0.578 | –
284.65 K, 101.3 kPa, x2 = 0.3636 | 0.588 | –
284.65 K, 101.3 kPa, x2 = 0.4 | 0.582 | –
284.65 K, 101.3 kPa, x2 = 0.4348 | 0.599 | –
284.65 K, 101.3 kPa, x2 = 0.4762 | 0.608 | –
284.65 K, 101.3 kPa, x2 = 0.5 | 0.616 | –
293.65 K, 101.3 kPa, x2 = 0.3333 | 0.774 | –
293.65 K, 101.3 kPa, x2 = 0.3636 | 0.803 | –
295.65 K, 101.3 kPa, x2 = 0.4 | 0.855 | –
295.65 K, 101.3 kPa, x2 = 0.4348 | 0.911 | –
295.65 K, 101.3 kPa, x2 = 0.4762 | 0.883 | –
295.65 K, 101.3 kPa, x2 = 0.5 | 0.916 | –
296.65 K, 101.3 kPa, x2 = 0.5263 | 0.639 | –
296.65 K, 101.3 kPa, x2 = 0.5556 | 0.417 | –
298.15 K, 101 kPa, x1 = 0.545 | 0.98 | 28.92
303.15 K, 101 kPa, x1 = 0.5238 | – | 26.36
303.15 K, 101 kPa, x1 = 0.5653 | – | 22.62
303.15 K, 101 kPa, x1 = 0.6429 | – | 17.68
303.15 K, 101 kPa, x1 = 0.643 | 1.06 | 17.7
303.15 K, 101 kPa, x1 = 0.667 | 1.05 | –
303.15 K, 101.3 kPa, x2 = 0.3333 | 1.02 | –
304.15 K, 101.3 kPa, x2 = 0.3333 | 1.05 | –
304.65 K, 101.3 kPa, x2 = 0.5263 | 0.868 | –
304.65 K, 101.3 kPa, x2 = 0.5556 | 0.586 | –
305.15 K, 101.3 kPa, x2 = 0.3333 | 1.07 | –
305.15 K, 101.3 kPa, x2 = 0.4 | 1.14 | –
305.15 K, 101.3 kPa, x2 = 0.5 | 1.25 | –
306.15 K, 101.3 kPa, x2 = 0.3636 | 1.16 | –
306.15 K, 101.3 kPa, x2 = 0.4348 | 1.22 | –
308.15 K, 101 kPa, x1 = 0.615 | 1.23 | 16.72
315.15 K, 101.3 kPa, x2 = 0.4762 | 1.57 | –
315.15 K, 101.3 kPa, x2 = 0.5263 | 1.2 | –
315.15 K, 101.3 kPa, x2 = 0.5556 | 0.851 | –
316.15 K, 101.3 kPa, x2 = 0.3333 | 1.41 | –
316.15 K, 101.3 kPa, x2 = 0.4 | 1.5 | –
316.15 K, 101.3 kPa, x2 = 0.5 | 1.68 | –
318.15 K, 101 kPa, x1 = 0.667 | 1.5 | 11.35
318.15 K, 101.3 kPa, x2 = 0.3636 | 1.54 | –
318.15 K, 101.3 kPa, x2 = 0.4348 | 1.69 | –
322.15 K, 101.3 kPa, x2 = 0.3333 | 1.62 | –
323.15 K, 101 kPa, x1 = 0.5 | – | 16.06
323.15 K, 101 kPa, x1 = 0.6296 | – | 11.12
324.15 K, 101.3 kPa, x2 = 0.5 | 1.98 | –
324.15 K, 101.3 kPa, x2 = 0.5263 | 1.5 | –
324.15 K, 101.3 kPa, x2 = 0.5556 | 1.09 | –
325.15 K, 101.3 kPa, x2 = 0.4 | 1.87 | –
326.15 K, 101.3 kPa, x2 = 0.3636 | 1.82 | –
326.15 K, 101.3 kPa, x2 = 0.4348 | 1.95 | –
328.15 K, 101 kPa, x1 = 0.643 | 1.88 | 9.76
331.15 K, 101.3 kPa, x2 = 0.4762 | 2.25 | –
332.15 K, 101.3 kPa, x2 = 0.3333 | 2 | –
333.15 K, 101 kPa, x1 = 0.5238 | – | 12.28
333.15 K, 101 kPa, x1 = 0.6001 | – | 9.9
333.15 K, 101 kPa, x1 = 0.615 | 2.16 | 9.5
333.15 K, 101 kPa, x1 = 0.6296 | – | 9.15
333.15 K, 101.3 kPa, x2 = 0.4 | 2.21 | –
333.15 K, 101.3 kPa, x2 = 0.5 | 2.43 | –
334.15 K, 101.3 kPa, x2 = 0.3636 | 2.15 | –
334.15 K, 101.3 kPa, x2 = 0.4348 | 2.33 | –
334.15 K, 101.3 kPa, x2 = 0.5263 | 1.94 | –
334.15 K, 101.3 kPa, x2 = 0.5556 | 1.42 | –
340.15 K, 101.3 kPa, x2 = 0.3333 | 2.29 | –
340.15 K, 101.3 kPa, x2 = 0.4762 | 2.65 | –
342.15 K, 101.3 kPa, x2 = 0.3636 | 2.45 | –
342.65 K, 101.3 kPa, x2 = 0.4348 | 2.72 | –
343.15 K, 101 kPa, x1 = 0.5834 | – | 8.63
343.15 K, 101.3 kPa, x2 = 0.4 | 2.62 | –
343.65 K, 101.3 kPa, x2 = 0.5 | 2.92 | –
344.15 K, 101.3 kPa, x2 = 0.5263 | 2.39 | –
345.15 K, 101.3 kPa, x2 = 0.5556 | 1.81 | –
347.15 K, 101.3 kPa, x2 = 0.3333 | 2.58 | –
347.15 K, 101.3 kPa, x2 = 0.4762 | 3.04 | –
350.15 K, 101.3 kPa, x2 = 0.3636 | 2.86 | –
351.15 K, 101.3 kPa, x2 = 0.4348 | 3.15 | –
351.65 K, 101.3 kPa, x2 = 0.4 | 3.02 | –
351.65 K, 101.3 kPa, x2 = 0.5 | 3.33 | –
352.15 K, 101.3 kPa, x2 = 0.5263 | 2.81 | –
352.15 K, 101.3 kPa, x2 = 0.5556 | 2.12 | –
358.15 K, 101.3 kPa, x2 = 0.3333 | 3 | –
358.15 K, 101.3 kPa, x2 = 0.4762 | 3.59 | –
360.15 K, 101.3 kPa, x2 = 0.3636 | 3.29 | –
360.15 K, 101.3 kPa, x2 = 0.4348 | 3.59 | –
361.15 K, 101.3 kPa, x2 = 0.4 | 3.46 | –
361.15 K, 101.3 kPa, x2 = 0.5 | 3.86 | –
361.65 K, 101.3 kPa, x2 = 0.5263 | 3.32 | –
361.65 K, 101.3 kPa, x2 = 0.5556 | 2.56 | –
367.15 K, 101.3 kPa, x2 = 0.3333 | 3.41 | –
367.15 K, 101.3 kPa, x2 = 0.4762 | 4.14 | –
370.15 K, 101.3 kPa, x2 = 0.3636 | 3.7 | –
370.15 K, 101.3 kPa, x2 = 0.4348 | 4.08 | –
370.15 K, 101.3 kPa, x2 = 0.5263 | 3.76 | –
370.15 K, 101.3 kPa, x2 = 0.5556 | 2.97 | –
371.15 K, 101.3 kPa, x2 = 0.4 | 3.96 | –
371.15 K, 101.3 kPa, x2 = 0.5 | 4.49 | –
379.15 K, 101.3 kPa, x2 = 0.3333 | 4.07 | –
379.15 K, 101.3 kPa, x2 = 0.4762 | 4.87 | –

Conditions | electrical conductivity [S/m]
306.15 K, 101 kPa, frequency 1 MHz, x2 = 0.625 | 0.227

CC(C)O + CCCCCC[n+]1ccn(C)c1.O=S(=O)([N-]S(=O)(=O)C(F)(F)F)C(F)(F)F
100 kPa, x1 = 1
Conditions | viscosity [mPa·s]
293.15 K | 2.42
298.15 K | 2.05
303.15 K | 1.73
308.15 K | 1.49
313.15 K | 1.34
